Data as given in US3939043A, “Antibiotics designated XK-88 series and process for production thereof” (Abbott Laboratories, priority 1973, dated 1976).
In brackets after ≈: the same amount, converted by molar mass. Like-named read-outs stand apart in the source and are kept apart here.

What was measured:
[1] = tested on: Pseudomonas aeruginosa BMH No. 1; test: In vitro antibacterial spectrum by agar dilution method (pH 8.0); assay type: cell-based; details: BMHNO.1; Pseudomonas aeruginosa BMH No. 1; agar dilution, pH 8.0; read-out: Minimum Inhibitory Concentration (M.I.C.)
[2] = tested on: Streptococcus faecalis ATCC 10541; test: as above; assay type: cell-based; details: Enterococcus faecalis, ATCC10541, pH 8, read-out: Minimum Inhibitory Concentration (M.I.C.)
Escherichia coli KY 8334 = test: as above; assay type: cell-based; details: KY8334, Escherichia coli KY 8334 (resistant to Kanamycin and Tobramycin), read-out: Minimum Inhibitory Concentration (M.I.C.)
[3] = tested on: Proteus vulgaris ATCC 6897; test: as above; assay type: cell-based; details: ATCC6897; Proteus vulgaris ATCC 6897; agar dilution, pH 8.0; read-out: Minimum Inhibitory Concentration (M.I.C.)
[4] = tested on: Staphylococcus aureus KY 8957; test: as above; assay type: cell-based; details: KY8957, Staphylococcus aureus KY 8957 (resistant to Chloramphenicol, Streptomycin, Kanamycin, Paromomycin, Nebramycin, Tobramycin and Tetracycline), read-out: Minimum Inhibitory Concentration (M.I.C.)
Escherichia coli KY 8348 = test: as above; assay type: cell-based; details: KY8348, Escherichia coli KY 8348 (resistant to Streptomycin and Gentamicin), read-out: Minimum Inhibitory Concentration (M.I.C.)
[5] = tested on: Staphylococcus aureus KY 8950; test: as above; assay type: cell-based; details: KY8950, Staphylococcus aureus KY 8950 (resistant to Streptomycin, Tetracycline, Penicillin and sulfonamide), read-out: Minimum Inhibitory Concentration (M.I.C.)
[6] = tested on: Bacillus cereus ATCC 9634; test: as above; assay type: cell-based; details: ATCC9634, read-out: Minimum Inhibitory Concentration (M.I.C.)
[7] = tested on: Staphylococcus aureus KY 8942; test: as above; assay type: cell-based; details: KY8942; Staphylococcus aureus KY 8942 (resistant to Kanamycin, Paromomycin, Streptomycin, Gentamicin and Nebramycin); agar dilution, pH 8.0; read-out: Minimum Inhibitory Concentration (M.I.C.)
[8] = tested on: Salmonella typhosa ATCC 9992; test: as above; assay type: cell-based; details: Salmonella enterica, pH 8, read-out: Minimum Inhibitory Concentration (M.I.C.)
[9] = tested on: Bacillus cereus var. mycoides ATCC 9463; test: microbe, parasite or virus in culture; assay type: cell-based; details: ATCC9463, pH 8, read-out: Minimum Inhibitory Concentration (M.I.C.)
[10] = tested on: Bacillus subtilis No. 10703; test: In vitro antibacterial spectrum by agar dilution method (pH 8.0); assay type: cell-based; details: Bacillus subtilis No. 10703; agar dilution, pH 8.0; read-out: Minimum Inhibitory Concentration (M.I.C.)
Escherichia coli ATCC 26 = test: as above; assay type: cell-based; details: ATCC26; Escherichia coli ATCC 26; agar dilution, pH 8.0; read-out: Minimum Inhibitory Concentration (M.I.C.)
[11] = tested on: Gram-positive and Gram-negative bacteria; test: Antibacterial activity (summary of Table 4); assay type: cell-based; details: versus the said known antibiotics; from Table 4
Excerpt: (§1) The in vitro antibacterial spectra of the XK-88 antibiotics by agar dilution method (pH 8.0) is illustrated in the following Table 4: […]

[12] = tested on: Staphylococcus aureus ATCC 6538P; test: In vitro antibacterial spectrum by agar dilution method (pH 8.0); assay type: cell-based; details: ATCC6538P, read-out: Minimum Inhibitory Concentration (M.I.C.)
Escherichia coli = test: Antibacterial activity against resistant bacteria (summary of Table 4); assay type: cell-based; details: Escherichia coli normally resistant to various known antibiotics
Excerpt: as §1

Staphylococcus aureus = test: as above; assay type: cell-based; details: Staphylococcus aureus normally resistant to various known antibiotics
Excerpt: as §1

[13] = tested on: Shigella sonnei ATCC 9290; test: In vitro antibacterial spectrum by agar dilution method (pH 8.0); assay type: cell-based; details: ATCC9290, read-out: Minimum Inhibitory Concentration (M.I.C.)
Excerpt: (§2) The in vitro antibacterial spectra of the XK-88 antibiotics by agar dilution method (pH 8.0) is illustrated in the following Table 4:
(§3) (Minimum Inhibitory Concentration (μg/ml)
(§4) by agar dilution method (pH 8.0)

Escherichia coli KY 8310 = test: as above; assay type: cell-based; details: KY8310, Escherichia coli KY 8310 (resistant to Chloramphenicol, Streptomycin, Kanamycin, Gentamicin, Paromomycin, Nebramycin, Tobramycin, Spectinomycin and Tetracycline), read-out: Minimum Inhibitory Concentration (M.I.C.)
Excerpt: as §2, §3, §4

Escherichia coli KY 8314 = test: as above; assay type: cell-based; details: KY8314, Escherichia coli KY 8314 (resistant to Streptomycin), read-out: Minimum Inhibitory Concentration (M.I.C.)
Excerpt: as §2, §3, §4

Escherichia coli KY 8331 = test: as above; assay type: cell-based; details: KY8331, Escherichia coli KY 8331 (resistant to Kanamycin, Ribostamycin, Neomycin, Paromomycin, Lividomycin and Nebramycin), read-out: Minimum Inhibitory Concentration (M.I.C.)
Excerpt: as §2, §3, §4

[14] = tested on: Klebsiella pneumoniae ATCC 10031; test: as above; assay type: cell-based; details: ATCC10031, read-out: Minimum Inhibitory Concentration (M.I.C.)
[15] = tested on: Staphylococcus aureus KY 8953; test: as above; assay type: cell-based
[16] = tested on: Staphylococcus aureus KY 8956; test: as above; assay type: cell-based; details: KY8956, Staphylococcus aureus KY 8956 (resistant to Streptomycin, Paromomycin, Tetracycline, Kanamycin, Nebramycin, Tobramycin and Erythromycin), read-out: Minimum Inhibitory Concentration (M.I.C.)
Escherichia coli KY 8327 = test: as above; assay type: cell-based; details: KY8327, Escherichia coli KY 8327 (resistant to Kanamycin, Gentamicin, Nebramycin and Tobramycin), read-out: Minimum Inhibitory Concentration (M.I.C.)
Solubility = assay type: physicochemical; details: for solubility in organic solvents: acetone, ethyl acetate, ethyl ether, chloroform, etc.

| Compound | MIC [1] | MIC [2] | MIC (Escherichia coli KY 8334) | MIC [3] | MIC [4] | MIC (Escherichia coli KY 8348) | MIC [5] | MIC [6] | MIC [7] | MIC [8] | MIC [9] | MIC [10] | MIC (Escherichia coli ATCC 26) | cross resistance with known antibiotics [11] | MIC [12] | antibacterial activity (Escherichia coli) | antibacterial activity (Staphylococcus aureus) | MIC [13] | MIC (Escherichia coli KY 8310) | MIC (Escherichia coli KY 8314) | also measured |
| --- | --- | --- | --- | --- | --- | --- | --- | --- | --- | --- | --- | --- | --- | --- | --- | --- | --- | --- | --- | --- | --- |
| NCC1CC(O)C(N)C(OC2C(N)CC(N)C(O)C2O)O1 (centres unmarked) [XK-88-2] | 10.5 µg/mL (≈ 34.3 µM) | > 83.3 µg/mL | 5.3 µg/mL (≈ 17.3 µM) | 1.4 µg/mL (≈ 4.57 µM) | 0.09 µg/mL (≈ 0.294 µM) | 0.18 µg/mL (≈ 0.588 µM) | 0.35 µg/mL (≈ 1.14 µM) | 2.7 µg/mL (≈ 8.81 µM) | 1.4 µg/mL (≈ 4.57 µM) | 0.7 µg/mL (≈ 2.28 µM) | 0.7 µg/mL (≈ 2.28 µM) | 0.35 µg/mL (≈ 1.14 µM) | 0.35 µg/mL (≈ 1.14 µM) | complete cross resistance does not always occur | 0.18 µg/mL (≈ 0.588 µM) | strong antibacterial activity | strong antibacterial activity | 1.4 µg/mL (≈ 4.57 µM) | > 83.3 µg/mL | 1.4 µg/mL (≈ 4.57 µM) | MIC (Escherichia coli KY 8331): 41.7 µg/mL (≈ 136 µM); MIC [14]: 0.18 µg/mL (≈ 0.588 µM); MIC ([15]; KY8953, Staphylococcus aureus KY 8953 (resistant to Streptomycin, Kanamycin, Paromycin, Neomycin, Tetracycline, Erythromycin), agar dilution, pH 8.0, read-out: Minimum Inhibitory Concentration (M.I.C.)): 0.35 µg/mL (≈ 1.14 µM); MIC [16]: 0.09 µg/mL (≈ 0.294 µM); MIC (Escherichia coli KY 8327): 0.18 µg/mL (≈ 0.588 µM) |
| NC1CC(N)C(OC2OC(CO)C(O)C(O)C2N)C(O)C1OC1OCC(O)C(O)C1N (centres unmarked) [sulfate of XK-88-1] | – | – | – | – | – | – | – | – | – | – | – | – | – | – | – | – | – | – | – | – | solubility in organic solvents (Solubility): insoluble; solubility in methanol and ethanol (Solubility): poorly soluble; solubility in water (Solubility): very soluble |
| NCC1OC(OC2C(N)CC(N)C(OC3OCC(O)C(O)C3N)C2O)C(N)C(O)C1O (centres unmarked) [XK-88-3] | > 416 µg/mL | > 83.3 µg/mL | 5.3 µg/mL (≈ 11.7 µM) | 1.4 µg/mL (≈ 3.09 µM) | 5.3 µg/mL (≈ 11.7 µM) | 0.09 µg/mL (≈ 0.198 µM) | 0.35 µg/mL (≈ 0.772 µM) | 2.7 µg/mL (≈ 5.95 µM) | 1.4 µg/mL (≈ 3.09 µM) | 0.18 µg/mL (≈ 0.397 µM) | 2.7 µg/mL (≈ 5.95 µM) | 2.7 µg/mL (≈ 5.95 µM) | 0.18 µg/mL (≈ 0.397 µM) | complete cross resistance does not always occur | 0.18 µg/mL (≈ 0.397 µM) | strong antibacterial activity | strong antibacterial activity | 0.35 µg/mL (≈ 0.772 µM) | 83.3 µg/mL (≈ 184 µM) | 0.35 µg/mL (≈ 0.772 µM) | MIC (Escherichia coli KY 8331): 41.7 µg/mL (≈ 92 µM); MIC [14]: 0.05 µg/mL (≈ 0.11 µM); MIC ([15]; Staphylococcus aureus, KY8953, pH 8, read-out: Minimum Inhibitory Concentration (M.I.C.)): > 83.3 µg/mL; MIC [16]: 5.3 µg/mL (≈ 11.7 µM); MIC (Escherichia coli KY 8327): 0.05 µg/mL (≈ 0.11 µM) |
| NCC1OC(OC2C(N)CC(N)C(OC3OCC(O)C(O)C3N)C2O)C(N)C(O)C1O (centres unmarked) [sulfate of XK-88-3] | – | – | – | – | – | – | – | – | – | – | – | – | – | – | – | – | – | – | – | – | solubility in organic solvents (Solubility): insoluble; solubility in methanol and ethanol (Solubility): poorly soluble; solubility in water (Solubility): very soluble |
